# Reference: patent publication US8497240B2 (priority 2006, dated 2013)
# Read-outs that look alike come from different tables or passages of the source.
# How the values were obtained:
# [1] = format: in vivo, NIH/Swiss mice
# Procedure: (§1) In FIG. 3A, bars represent mean±sd, n=6-10. […] Gavage (1.5 g/kg) was given at t=0, Sample was taken at t=30 min. […] In FIG. 3B, points represent mean±sem, n=8-15.
# Peptide was injected IP at t=−5 minutes into 4-hour fasted NIH/Swiss female mice. […] In FIG. 17 points represent mean+/−sem. […] Samples were taken at t=60, t=120 and t=180.
# [2] = format: in vivo, NIH/Swiss mice; settings: 80 nmol/kg, AUC240
# Procedure: as §1
# Points represent mean±sem.
Structure (SMILES),OGTT/GL (%) ([1]; 30 nmol/kg),further results
CC[C@H](C)[C@H](NC(=O)[C@H](CO)NC(=O)[C@H](Cc1ccc(O)cc1)NC(=O)[C@H](CC(=O)O)NC(=O)[C@H](CO)NC(=O)[C@@H](NC(=O)[C@H](Cc1ccccc1)NC(=O)[C@@H](NC(=O)CNC(=O)[C@H](CCC(=O)O)NC(=O)[C@@H](C)NC(=O)[C@@H](N)Cc1ccc(O)cc1)[C@@H](C)O)[C@@H](C)CC)C(=O)N[C@@H](C)C(=O)N[C@@H](CCSC)C(=O)N[C@@H](CC(=O)O)C(=O)N[C@@H](CCCCN)C(=O)N[C@H](C(=O)N[C@@H](Cc1c[nH]cn1)C(=O)N[C@@H](CCC(N)=O)C(=O)N[C@@H](CCC(N)=O)C(=O)N[C@@H](CC(=O)O)C(=O)N[C@@H](Cc1ccccc1)C(=O)N[C@H](C(=O)N[C@@H](CCC(N)=O)C(=O)N[C@@H](Cc1c[nH]c2ccccc12)C(=O)N[C@@H](CC(C)C)C(=O)N[C@@H](CC(C)C)C(=O)N[C@@H](C)C(=O)N[C@@H](CCC(N)=O)C(=O)N[C@@H](CCCCN)C(=O)N1CCC[C@H]1C(=O)N[C@@H](CO)C(=O)N[C@@H](CO)C(=O)NCC(=O)N[C@@H](C)C(=O)N1CCC[C@H]1C(=O)N1CCC[C@H]1C(=O)N1CCC[C@H]1C(=O)N[C@@H](CO)C(N)=O)C(C)C)[C@@H](C)CC [Compound 0601GIP4846],"−25, %","Basal Glucose Lowering at Peptide Conc. of 80 nmol/kg [2]: −6%,"
CC[C@H](C)[C@H](NC(=O)[C@H](CO)NC(=O)[C@H](Cc1ccc(O)cc1)NC(=O)[C@H](CC(=O)O)NC(=O)[C@H](CO)NC(=O)[C@@H](NC(=O)[C@H](Cc1ccccc1)NC(=O)[C@@H](NC(=O)CNC(=O)[C@H](CCC(=O)O)NC(=O)[C@@H](C)NC(=O)[C@@H](N)Cc1ccc(O)cc1)[C@@H](C)O)[C@@H](C)CC)C(=O)N[C@@H](C)C(=O)N[C@@H](CCSC)C(=O)N[C@@H](CC(=O)O)C(=O)N[C@@H](CCCCN)C(=O)N[C@H](C(=O)N[C@@H](Cc1c[nH]cn1)C(=O)N[C@@H](CCC(N)=O)C(=O)N[C@@H](CCC(N)=O)C(=O)N[C@@H](CC(=O)O)C(=O)N[C@@H](Cc1ccccc1)C(=O)N[C@H](C(=O)N[C@@H](CC(N)=O)C(=O)N[C@@H](Cc1c[nH]c2ccccc12)C(=O)N[C@@H](CC(C)C)C(=O)N[C@@H](CC(C)C)C(=O)N[C@@H](C)C(=O)N[C@@H](CCC(N)=O)C(=O)N[C@@H](CCCCN)C(=O)N1CCC[C@H]1C(=O)N[C@@H](CCCCN)C(=O)N[C@@H](CCCCN)C(=O)N[C@H](C(=O)N[C@@H](CCCNC(=N)N)C(=O)N[C@@H](C)C(=O)N[C@@H](CO)C(N)=O)[C@@H](C)CC)C(C)C)[C@@H](C)CC [Compound 0601GIP4818],"−23, %","Basal Gluc. Low. 80 nmol/Kg [2]: −9%,"
CC[C@H](C)[C@H](NC(=O)[C@H](CO)NC(=O)[C@H](Cc1ccc(O)cc1)NC(=O)[C@H](CC(=O)O)NC(=O)[C@H](CO)NC(=O)[C@@H](NC(=O)[C@H](Cc1ccccc1)NC(=O)[C@@H](NC(=O)CNC(=O)[C@H](CCC(=O)O)NC(=O)[C@@H](C)NC(=O)[C@@H](N)Cc1ccc(O)cc1)[C@@H](C)O)[C@@H](C)CC)C(=O)N[C@@H](C)C(=O)N[C@@H](CCSC)C(=O)N[C@@H](CC(=O)O)C(=O)N[C@@H](CCCCN)C(=O)N[C@H](C(=O)N[C@@H](Cc1c[nH]cn1)C(=O)N[C@@H](CCC(N)=O)C(=O)N[C@@H](CCC(N)=O)C(=O)N[C@@H](CC(=O)O)C(=O)N[C@@H](Cc1ccccc1)C(=O)N[C@H](C(=O)N[C@@H](CC(N)=O)C(=O)N[C@@H](Cc1c[nH]c2ccccc12)C(=O)N[C@@H](CC(C)C)C(=O)N[C@@H](CC(C)C)C(=O)N[C@@H](C)C(=O)N[C@@H](CCC(N)=O)C(=O)N[C@@H](CCCCN)C(=O)N[C@H](C(=O)N[C@@H](CO)C(=O)N1CCC[C@H]1C(=O)N1CCC[C@H]1C(=O)N1CCC[C@H]1C(N)=O)[C@@H](C)O)C(C)C)[C@@H](C)CC [0601GIP4345],−14 @ 30 nmol/kg %,"OGTT/GL (%) ([1]; 250 nmol/kg): −25 @ 250 nmol/kg, %; Basal Glucose Lowering at Peptide Conc. of 80 nmol/kg [2]: −11%, AUC240"
CC[C@H](C)[C@H](NC(=O)[C@H](CO)NC(=O)[C@H](Cc1ccc(O)cc1)NC(=O)[C@H](CC(=O)O)NC(=O)[C@H](CO)NC(=O)[C@@H](NC(=O)[C@H](Cc1ccccc1)NC(=O)[C@@H](NC(=O)CNC(=O)[C@H](CC(=O)O)NC(=O)[C@H](C)NC(=O)[C@@H](N)Cc1ccc(O)cc1)[C@@H](C)O)[C@@H](C)CC)C(=O)N[C@@H](C)C(=O)N[C@@H](CCSC)C(=O)N[C@@H](CC(=O)O)C(=O)N[C@@H](CCCCN)C(=O)N[C@H](C(=O)N[C@@H](Cc1c[nH]cn1)C(=O)N[C@@H](CCC(N)=O)C(=O)N[C@@H](CCC(N)=O)C(=O)N[C@@H](CC(=O)O)C(=O)N[C@@H](Cc1ccccc1)C(=O)N[C@H](C(=O)N[C@@H](CC(N)=O)C(=O)N[C@@H](Cc1c[nH]c2ccccc12)C(=O)N[C@@H](CC(C)C)C(=O)N[C@@H](CC(C)C)C(=O)N[C@@H](C)C(=O)N[C@@H](CCC(N)=O)C(=O)N[C@@H](CCCCN)C(=O)N1CCC[C@H]1C(=O)N[C@@H](CCCCN)C(=O)N[C@@H](CCCCN)C(=O)N[C@H](C(=O)N[C@@H](CCCNC(=N)N)C(=O)N[C@@H](Cc1ccc(O)cc1)C(=O)N[C@@H](CO)C(N)=O)[C@@H](C)CC)C(C)C)[C@@H](C)CC [Compound 0601GIP4390],"1, 30%",
CC[C@H](C)[C@H](NC(=O)[C@H](CO)NC(=O)[C@H](Cc1ccc(O)cc1)NC(=O)[C@H](CC(=O)O)NC(=O)[C@H](CO)NC(=O)[C@@H](NC(=O)[C@H](Cc1ccccc1)NC(=O)[C@@H](NC(=O)CNC(=O)[C@H](CCC(=O)O)NC(=O)[C@H](C)NC(=O)[C@@H](N)Cc1ccc(O)cc1)[C@@H](C)O)[C@@H](C)CC)C(=O)N[C@@H](C)C(=O)N[C@@H](CCSC)C(=O)N[C@@H](CC(=O)O)C(=O)N[C@@H](CCCCN)C(=O)N[C@H](C(=O)N[C@@H](Cc1c[nH]cn1)C(=O)N[C@@H](CCC(N)=O)C(=O)N[C@@H](CCC(N)=O)C(=O)N[C@@H](CC(=O)O)C(=O)N[C@@H](Cc1ccccc1)C(=O)N[C@H](C(=O)N[C@@H](CC(N)=O)C(=O)N[C@@H](Cc1c[nH]c2ccccc12)C(=O)N[C@@H](CC(C)C)C(=O)N[C@@H](CC(C)C)C(=O)N[C@@H](C)C(=O)N[C@@H](CCC(N)=O)C(=O)N[C@@H](CCCCN)C(=O)N1CCC[C@H]1C(=O)N[C@@H](CCCCN)C(=O)N[C@@H](CCCCN)C(=O)N[C@H](C(=O)N[C@@H](CCCNC(=N)N)C(=O)N[C@@H](Cc1ccc(O)cc1)C(=O)N[C@@H](CO)C(N)=O)[C@@H](C)CC)C(C)C)[C@@H](C)CC [0601GIP4327],"−7, 30%",
CC[C@H](C)[C@H](NC(=O)[C@H](CO)NC(=O)[C@H](Cc1ccc(O)cc1)NC(=O)[C@H](CC(=O)O)NC(=O)[C@H](CO)NC(=O)[C@@H](NC(=O)[C@H](Cc1ccccc1)NC(=O)[C@@H](NC(=O)CNC(=O)[C@H](CCC(=O)O)NC(=O)[C@@H](C)NC(=O)[C@H](Cc1ccc(O)cc1)NC(=O)OCC(C)C)[C@@H](C)O)[C@@H](C)CC)C(=O)N[C@@H](C)C(=O)N[C@@H](CCSC)C(=O)N[C@@H](CC(=O)O)C(=O)N[C@@H](CCCCN)C(=O)N[C@H](C(=O)N[C@@H](Cc1c[nH]cn1)C(=O)N[C@@H](CCC(N)=O)C(=O)N[C@@H](CCC(N)=O)C(=O)N[C@@H](CC(=O)O)C(=O)N[C@@H](Cc1ccccc1)C(=O)N[C@H](C(=O)N[C@@H](CC(N)=O)C(=O)N[C@@H](Cc1c[nH]c2ccccc12)C(=O)N[C@@H](CC(C)C)C(=O)N[C@@H](CC(C)C)C(=O)N[C@@H](C)C(=O)N[C@@H](CCC(N)=O)C(=O)N[C@@H](CCCCN)C(=O)N1CCC[C@H]1C(=O)N[C@@H](CO)C(=O)N[C@@H](CO)C(=O)NCC(=O)N[C@@H](C)C(=O)N1CCC[C@H]1C(=O)N1CCC[C@H]1C(=O)N1CCC[C@H]1C(=O)N[C@@H](CO)C(N)=O)C(C)C)[C@@H](C)CC [Compound 0601GIP4180],"−11, 30%",
CC[C@H](C)[C@H](NC(=O)[C@H](CO)NC(=O)[C@H](Cc1ccc(O)cc1)NC(=O)[C@H](CC(=O)O)NC(=O)[C@H](CO)NC(=O)[C@@H](NC(=O)[C@H](Cc1ccccc1)NC(=O)[C@@H](NC(=O)CNC(=O)[C@H](CCC(=O)O)NC(=O)[C@H](C)NC(=O)[C@@H](N)Cc1ccc(O)cc1)[C@@H](C)O)[C@@H](C)CC)C(=O)N[C@@H](C)C(=O)N[C@@H](CCSC)C(=O)N[C@@H](CC(=O)O)C(=O)N[C@@H](CCCCN)C(=O)N[C@H](C(=O)N[C@@H](Cc1c[nH]cn1)C(=O)N[C@@H](CCC(N)=O)C(=O)N[C@@H](CCC(N)=O)C(=O)N[C@@H](CC(=O)O)C(=O)N[C@@H](Cc1ccccc1)C(=O)N[C@H](C(=O)N[C@@H](CC(N)=O)C(=O)N[C@@H](Cc1c[nH]c2ccccc12)C(=O)N[C@@H](CC(C)C)C(=O)N[C@@H](CC(C)C)C(=O)N[C@@H](C)C(=O)N[C@@H](CCC(N)=O)C(=O)N[C@@H](CCCCN)C(=O)N[C@H](C(=O)N[C@@H](CO)C(=O)N1CCC[C@H]1C(=O)N[C@@H](CCCNC(=N)N)C(=O)N1CCC[C@H]1C(=O)N1CCC[C@H]1C(=O)N[C@@H](CO)C(=O)N[C@@H](CO)C(N)=O)[C@@H](C)O)C(C)C)[C@@H](C)CC [0601GIP4401],"1, 30%",
CC[C@H](C)[C@H](NC(=O)[C@H](CO)NC(=O)[C@H](Cc1ccc(O)cc1)NC(=O)[C@H](CC(=O)O)NC(=O)[C@H](CO)NC(=O)[C@@H](NC(=O)[C@H](Cc1ccccc1)NC(=O)[C@@H](NC(=O)CNC(=O)[C@H](CCC(=O)O)NC(=O)[C@@H](C)NC(=O)[C@@H](N)Cc1ccc(O)cc1)[C@@H](C)O)[C@@H](C)CC)C(=O)N[C@@H](C)C(=O)N[C@@H](CCSC)C(=O)N[C@@H](CC(=O)O)C(=O)N[C@@H](CCCCN)C(=O)N[C@H](C(=O)N[C@@H](Cc1c[nH]cn1)C(=O)N[C@@H](CCC(N)=O)C(=O)N[C@@H](CCC(N)=O)C(=O)N[C@@H](CC(=O)O)C(=O)N[C@@H](Cc1ccccc1)C(=O)N[C@H](C(=O)N[C@@H](CC(N)=O)C(=O)N[C@@H](Cc1c[nH]c2ccccc12)C(=O)N[C@@H](CC(C)C)C(=O)N[C@@H](CC(C)C)C(=O)N[C@@H](C)C(=O)N[C@@H](CCC(N)=O)C(=O)N[C@@H](CCCCN)C(=O)N[C@H](C(=O)N[C@@H](CO)C(=O)N1CCC[C@H]1C(=O)N[C@@H](CCCNC(=N)N)C(=O)N1CCC[C@H]1C(=O)N1CCC[C@H]1C(=O)N[C@@H](CO)C(N)=O)[C@@H](C)O)C(C)C)[C@@H](C)CC [Compound 0601GIP4236],,OGTT/GL (%) ([1]; 350 nmol/kg): −16%
